The text below walks through data of publication PMC7614683, “A small molecule PI3Kα activator for cardioprotection and neuroregeneration” (Nature, 2023).

What all share (type): biochemical
Assay [1] concerns the target PIK3CB/PIK3R1 (p110 beta/p85 alpha) (Homo sapiens, UniProt P42338). The experiment in a line: SelectScreen Adapta. On the procedure:
(§1) 133 protein kinases and 7 lipid kinases were counterscreened, with 1938 used at 1 μM, using the Adapta, Lantha and Z-LYTE assays (SelectScreen Kinase Profiling Service; Thermofisher – experimental details of these assays can be found here: https://www.thermofisher.com/uk/en/home/industrial/pharma-biopharma/drug-discovery-development/target-and-lead-identification-and-validation/kinasebiology/kinase-activity-assays.html. The tree represention in KinMap[59] generated courtesy of Cell Signaling Technology, Inc. (www.cellsignal.com). mTORC1 (mTOR/RAPTOR/LST8) protein complex and ATM kinase and substrates were produced as previously described[57],[60]. Screening of 1938 was conducted using SuperSep Phos-Tag 50 μmol/l 100 x 100 x 6.6 mm 17-well (192-18001/199-18011) gels. For ATM assays, 100 nM ATM was incubated for 30 min at 30°C with 5 μM GST-p53 and 1 mM ATP, in the absence or presence of 200 μM 1938 in ATM Kinase Buffer (50 mM HEPES pH 7.5, 100 mM NaCl, 10% glycerol, 2 mM […], 5 mM MgCl2). As a positive control for ATM activation, the same reaction was carried out with 100 nM ATM/5 μM GST-p53/1 mM ATP in the presence of 100 nM Mre11-Rad50-Nbs1 (MRN) complex, a known activator of ATM[61]. For mTORC1 assays, 50 nM mTORC1 complex (mTOR/LST8/RAPTOR) was incubated for 3 h at 30°C with 15 μM 4E-BP1, 10 mM MgCl2 and 250 μM ATP, in the absence or presence of 200 μM 1938. As a ‘positive’ control, a higher concentration (150 nM) of mTORC1 complex (mTOR/LST8/RAPTOR) was incubated for 3 h at 30°C with 15 μM 4E-BP1, 10 mM MgCl2 and 250 μM ATP. Kinase reactions were quenched by addition of SDS-PAGE Loading Buffer (as per manufacturer’s instructions) and freezing at -20°C before being run on the Phos-tag gels at 150 V for 90 min. Gels were then stained using InstantBlue™ Coomassie, and quantified using BioRad Image Lab Software. Kinase assays were carried out in triplicate.

The next assay concerns the target CDK7/cyclin H/MNAT1 (Homo sapiens, UniProt P50613). The experiment in a line: SelectScreen Adapta. On the procedure: as §1
For the next assay, the target named is CAMK1 (CaMK1) (Homo sapiens, UniProt Q14012). Description: SelectScreen Adapta. The following applies: 1000 nM, [ATP] 10 μM. On the procedure:
as §1

For another assay, the target named is PI4KB (PI4K beta) (Homo sapiens, UniProt Q9UBF8). The experiment in a line: SelectScreen Adapta. On the procedure: as §1
Chain of PI4KB (PI4K beta) (Q9UBF8 whole entry): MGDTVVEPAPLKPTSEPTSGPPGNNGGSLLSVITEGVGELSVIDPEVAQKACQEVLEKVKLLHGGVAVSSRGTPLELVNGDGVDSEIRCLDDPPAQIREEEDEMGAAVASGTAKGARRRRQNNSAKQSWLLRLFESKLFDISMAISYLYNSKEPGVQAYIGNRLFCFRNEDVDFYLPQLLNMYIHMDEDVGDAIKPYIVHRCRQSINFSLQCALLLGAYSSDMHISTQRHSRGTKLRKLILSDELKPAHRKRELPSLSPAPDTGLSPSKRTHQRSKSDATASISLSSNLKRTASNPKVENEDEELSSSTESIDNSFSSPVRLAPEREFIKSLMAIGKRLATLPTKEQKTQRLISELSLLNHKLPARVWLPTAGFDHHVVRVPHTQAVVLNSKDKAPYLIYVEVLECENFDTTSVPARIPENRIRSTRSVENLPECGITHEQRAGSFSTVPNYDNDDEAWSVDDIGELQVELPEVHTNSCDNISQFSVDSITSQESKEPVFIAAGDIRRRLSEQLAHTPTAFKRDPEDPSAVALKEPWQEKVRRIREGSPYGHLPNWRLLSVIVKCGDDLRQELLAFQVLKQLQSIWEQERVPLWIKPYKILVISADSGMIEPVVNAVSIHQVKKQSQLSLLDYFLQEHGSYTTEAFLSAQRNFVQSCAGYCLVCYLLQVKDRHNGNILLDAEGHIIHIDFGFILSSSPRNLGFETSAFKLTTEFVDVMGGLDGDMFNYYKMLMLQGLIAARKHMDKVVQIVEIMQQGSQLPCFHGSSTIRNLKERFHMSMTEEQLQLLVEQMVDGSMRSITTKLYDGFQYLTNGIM
The target in another assay is LRRK2 (Homo sapiens, UniProt Q5S007). Description: SelectScreen Adapta. On the procedure: as §1
For assay [2], the target named is PIK3CA/PIK3R1 (p110 alpha/p85 alpha) (Homo sapiens, UniProt P42336). The experiment in a line: SelectScreen Adapta. On the procedure: as §1
Another assay addresses PIK3C3 (hVPS34) (Homo sapiens, UniProt Q8NEB9). Description: SelectScreen Adapta. On the procedure:
as §1

For a further assay, the target named is BRK (Homo sapiens, UniProt Q13882). The experiment in a line: SelectScreen kinase profiling, BRK. On the procedure:
as §1

Each structure is given as a SMILES string. Where two headings read alike, the source gives them in different places.

Chain of PIK3CB/PIK3R1 (p110 beta/p85 alpha) (P42338 whole entry): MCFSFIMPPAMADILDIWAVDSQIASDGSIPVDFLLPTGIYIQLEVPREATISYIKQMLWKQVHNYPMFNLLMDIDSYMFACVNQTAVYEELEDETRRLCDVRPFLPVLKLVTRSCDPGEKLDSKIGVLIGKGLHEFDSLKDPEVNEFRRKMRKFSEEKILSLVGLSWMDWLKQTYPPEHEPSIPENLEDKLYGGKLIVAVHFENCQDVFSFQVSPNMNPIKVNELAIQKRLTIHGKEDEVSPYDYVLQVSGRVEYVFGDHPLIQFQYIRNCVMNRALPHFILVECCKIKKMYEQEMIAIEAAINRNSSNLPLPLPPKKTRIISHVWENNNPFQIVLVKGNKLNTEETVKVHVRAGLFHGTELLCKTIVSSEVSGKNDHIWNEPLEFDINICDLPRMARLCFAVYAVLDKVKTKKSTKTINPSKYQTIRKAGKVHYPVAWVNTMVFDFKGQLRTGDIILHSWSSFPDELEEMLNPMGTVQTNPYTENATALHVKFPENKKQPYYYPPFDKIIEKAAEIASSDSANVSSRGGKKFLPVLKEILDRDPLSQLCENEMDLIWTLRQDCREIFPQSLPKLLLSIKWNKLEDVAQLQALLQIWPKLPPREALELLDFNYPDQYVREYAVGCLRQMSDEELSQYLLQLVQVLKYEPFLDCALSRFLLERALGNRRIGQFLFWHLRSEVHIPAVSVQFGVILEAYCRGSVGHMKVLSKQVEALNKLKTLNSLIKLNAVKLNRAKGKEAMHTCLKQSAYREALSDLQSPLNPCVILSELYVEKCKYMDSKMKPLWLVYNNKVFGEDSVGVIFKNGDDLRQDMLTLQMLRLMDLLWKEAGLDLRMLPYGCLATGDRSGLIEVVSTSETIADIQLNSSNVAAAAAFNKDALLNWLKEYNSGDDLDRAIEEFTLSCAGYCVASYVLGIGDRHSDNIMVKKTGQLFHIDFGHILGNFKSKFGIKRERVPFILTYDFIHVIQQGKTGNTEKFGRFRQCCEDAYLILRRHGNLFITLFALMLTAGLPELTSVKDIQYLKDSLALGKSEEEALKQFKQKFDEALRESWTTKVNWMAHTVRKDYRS
Chain of PIK3CB/PIK3R1 (p110 beta/p85 alpha) (P27986 whole entry partner): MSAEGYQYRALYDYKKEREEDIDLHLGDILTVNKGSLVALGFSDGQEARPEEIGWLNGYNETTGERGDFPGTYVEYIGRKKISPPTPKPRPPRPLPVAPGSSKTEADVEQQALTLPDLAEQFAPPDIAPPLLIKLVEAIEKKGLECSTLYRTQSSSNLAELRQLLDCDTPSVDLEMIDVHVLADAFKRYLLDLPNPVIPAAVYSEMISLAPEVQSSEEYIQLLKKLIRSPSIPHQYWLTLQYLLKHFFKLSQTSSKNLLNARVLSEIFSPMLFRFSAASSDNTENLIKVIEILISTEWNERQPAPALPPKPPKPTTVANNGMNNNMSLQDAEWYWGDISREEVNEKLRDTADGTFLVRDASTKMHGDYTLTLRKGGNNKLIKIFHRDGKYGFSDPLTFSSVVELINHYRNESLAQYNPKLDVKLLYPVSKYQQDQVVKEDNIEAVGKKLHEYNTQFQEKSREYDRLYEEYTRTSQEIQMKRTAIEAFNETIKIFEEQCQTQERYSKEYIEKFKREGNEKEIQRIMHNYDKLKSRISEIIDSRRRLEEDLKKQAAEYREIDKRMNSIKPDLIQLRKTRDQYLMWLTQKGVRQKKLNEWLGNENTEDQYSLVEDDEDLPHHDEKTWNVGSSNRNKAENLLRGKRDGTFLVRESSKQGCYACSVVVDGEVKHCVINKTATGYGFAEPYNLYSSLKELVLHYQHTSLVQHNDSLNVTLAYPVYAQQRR
Chain of CDK7/cyclin H/MNAT1 (P50613 whole entry): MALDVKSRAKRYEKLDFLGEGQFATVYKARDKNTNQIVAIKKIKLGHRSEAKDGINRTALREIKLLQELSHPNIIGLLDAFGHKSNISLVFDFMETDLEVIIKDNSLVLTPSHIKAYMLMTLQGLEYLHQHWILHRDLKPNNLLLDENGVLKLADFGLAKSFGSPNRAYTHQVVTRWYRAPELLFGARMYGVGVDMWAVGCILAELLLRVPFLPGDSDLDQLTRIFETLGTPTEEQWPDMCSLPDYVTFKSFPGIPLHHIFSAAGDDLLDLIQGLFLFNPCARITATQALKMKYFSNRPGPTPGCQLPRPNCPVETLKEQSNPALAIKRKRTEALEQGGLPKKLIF
Chain of CDK7/cyclin H/MNAT1 (P51946 whole entry partner): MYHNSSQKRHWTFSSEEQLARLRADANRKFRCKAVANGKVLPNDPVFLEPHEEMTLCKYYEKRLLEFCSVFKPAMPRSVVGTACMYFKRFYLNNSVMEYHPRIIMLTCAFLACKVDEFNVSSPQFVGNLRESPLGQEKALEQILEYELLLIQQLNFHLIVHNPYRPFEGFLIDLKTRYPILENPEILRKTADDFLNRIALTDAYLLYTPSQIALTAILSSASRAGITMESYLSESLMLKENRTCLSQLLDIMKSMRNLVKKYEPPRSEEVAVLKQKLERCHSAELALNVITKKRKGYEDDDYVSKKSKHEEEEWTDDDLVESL
Chain of CDK7/cyclin H/MNAT1 (P51948 whole entry partner): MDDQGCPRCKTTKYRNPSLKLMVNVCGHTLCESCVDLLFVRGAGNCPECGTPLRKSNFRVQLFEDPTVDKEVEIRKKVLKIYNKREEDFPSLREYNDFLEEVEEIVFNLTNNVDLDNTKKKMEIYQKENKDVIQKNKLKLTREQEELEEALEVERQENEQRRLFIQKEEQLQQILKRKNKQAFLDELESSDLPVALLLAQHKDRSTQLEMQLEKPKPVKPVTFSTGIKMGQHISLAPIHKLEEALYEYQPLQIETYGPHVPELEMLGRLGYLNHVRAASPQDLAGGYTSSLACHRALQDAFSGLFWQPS
Chain of BRK (Q13882 whole entry): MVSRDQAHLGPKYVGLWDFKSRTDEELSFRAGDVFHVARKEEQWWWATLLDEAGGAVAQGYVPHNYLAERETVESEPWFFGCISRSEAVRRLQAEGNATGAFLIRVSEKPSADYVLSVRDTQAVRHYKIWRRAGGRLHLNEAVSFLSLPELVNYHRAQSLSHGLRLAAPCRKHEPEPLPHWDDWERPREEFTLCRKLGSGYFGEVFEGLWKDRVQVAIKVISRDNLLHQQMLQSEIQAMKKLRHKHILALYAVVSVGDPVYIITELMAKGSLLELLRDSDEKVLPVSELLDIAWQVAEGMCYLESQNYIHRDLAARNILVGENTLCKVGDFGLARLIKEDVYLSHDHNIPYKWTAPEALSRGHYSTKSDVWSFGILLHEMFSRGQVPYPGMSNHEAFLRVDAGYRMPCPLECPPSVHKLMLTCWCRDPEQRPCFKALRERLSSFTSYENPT
Chain of PIK3C3 (hVPS34) (Q8NEB9 whole entry): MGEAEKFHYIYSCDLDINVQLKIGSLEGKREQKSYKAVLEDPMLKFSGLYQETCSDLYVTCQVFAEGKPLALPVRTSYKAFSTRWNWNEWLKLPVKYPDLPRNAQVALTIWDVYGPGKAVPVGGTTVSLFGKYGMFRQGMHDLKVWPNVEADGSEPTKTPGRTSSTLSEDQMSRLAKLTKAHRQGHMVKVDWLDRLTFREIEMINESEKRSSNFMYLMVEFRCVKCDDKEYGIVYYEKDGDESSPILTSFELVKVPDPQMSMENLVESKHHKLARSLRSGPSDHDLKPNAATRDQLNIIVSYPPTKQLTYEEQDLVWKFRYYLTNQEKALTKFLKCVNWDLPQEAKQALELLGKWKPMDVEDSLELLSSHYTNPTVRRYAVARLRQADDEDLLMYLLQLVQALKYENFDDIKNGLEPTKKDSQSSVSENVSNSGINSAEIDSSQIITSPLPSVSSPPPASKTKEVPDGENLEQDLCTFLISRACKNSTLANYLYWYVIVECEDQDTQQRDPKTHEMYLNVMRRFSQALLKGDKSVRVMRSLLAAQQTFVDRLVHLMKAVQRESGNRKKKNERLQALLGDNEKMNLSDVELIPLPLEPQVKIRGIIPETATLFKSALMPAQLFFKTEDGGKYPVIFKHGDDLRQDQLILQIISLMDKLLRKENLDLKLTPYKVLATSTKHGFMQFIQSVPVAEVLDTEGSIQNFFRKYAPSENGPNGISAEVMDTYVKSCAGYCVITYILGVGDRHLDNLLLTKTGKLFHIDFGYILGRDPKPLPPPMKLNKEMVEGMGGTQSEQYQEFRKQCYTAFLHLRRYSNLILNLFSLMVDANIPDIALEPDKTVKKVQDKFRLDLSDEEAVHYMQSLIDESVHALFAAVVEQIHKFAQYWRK

As usually defined, the inhibition is the relative decrease from the control value, in per cent. For `CCN1CCN(c2ccc(Nc3cc(Nc4cccc5c4N(C(C)=O)CC5)ccn3)cc2)CC1` [Compound 1938], the inhibition at 1 µM in assay [1] (read-out: % Inhibition Point 1) is 2.51%; in assay [1] (read-out: % Inhibition Point 2), 0.803%; in assay [1] (read-out: % Inhibition mean) it was 1.66%; on CDK7/cyclin H/MNAT1 (read-out: % Inhibition Point 1), -6.51%; on CDK7/cyclin H/MNAT1 (read-out: % Inhibition Point 2), 4%; on CDK7/cyclin H/MNAT1 (read-out: % Inhibition mean) it was -1.27%. In addition, the inhibition at 1 µM at CAMK1 (CaMK1) (read-out: % Inhibition Point 1) is 26%; at CAMK1 (CaMK1) (read-out: % Inhibition Point 2), 23%; at CAMK1 (CaMK1) (read-out: % Inhibition mean), 25%; on PI4KB (PI4K beta) (read-out: % Inhibition Point 1) it was -1.1%; at PI4KB (PI4K beta) (read-out: % Inhibition Point 2), 0.786%; at PI4KB (PI4K beta) (read-out: % Inhibition mean) it was -0.157%. Besides, the inhibition at 1 µM on LRRK2 (read-out: % Inhibition Point 1) is 13%; at LRRK2 (read-out: % Inhibition Point 2), 18%; at LRRK2 (read-out: % Inhibition mean), 16%; in assay [2] (read-out: % Inhibition Point 1), -19%; in assay [2] (read-out: % Inhibition Point 2), -20%; in assay [2] (read-out: % Inhibition mean), -19%. Besides, the inhibition at 1 µM at PIK3C3 (hVPS34) (read-out: % Inhibition Point 1) turned out to be 3.28%; at PIK3C3 (hVPS34) (read-out: % Inhibition Point 2) it was 7.6%; on PIK3C3 (hVPS34) (read-out: % Inhibition mean) it was 5.44%; on BRK (read-out: % Inhibition Point 1), 55%; on BRK (read-out: % Inhibition Point 2) it was 56%; on BRK (read-out: % Inhibition mean) it was 56%.
